Tests used:
[1] = system: oval-leafed pondweed; assay: Test Example 1: herbicidal activity, application before weed generation under submerged conditions (Table 16, symbol C); type: in vivo, oval-leafed pondweed (Monochoria vaginalis); settings: amount of applied herbicide 320 g/ha
Outline: (§1)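 Alluvial soil was flooded to 4 cm depth, weed seeds were sown mixed and 2.5-leaf rice seedlings were transplanted. On sowing day, the compound's emulsion, diluted in water to a set dose, was applied to the water surface. Plants grew at 25–30 °C and were scored 0–5 after three weeks.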

[2] = system: velvetleaf; assay: Test Example 5: herbicidal effect by foliage application, plastic box (Table 20, symbol M); type: in vivo, velvetleaf (Abutilon theophrasti); settings: foliage application, 320 g/ha, three weeks after application
Outline: (§2)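 Plants sown in sterilized diluvial soil and grown 14 days in a greenhouse at 25° C to 30° C, then sprayed on the foliage with the compound's emulsion diluted in water to a predetermined herbicide amount. Injury to weeds and crops scored three weeks after application on a visual rating scale.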

[3] = system: windgrass; assay: Test Example 4: herbicidal effect by soil treatment (Table 19, symbol L); type: in vivo, windgrass (Apera spica-venti); settings: amount of applied herbicide 320 g/ha
Outline: (§3)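 Seeds were sown in sterilized diluvial soil and covered with about 1.5 cm of soil. An emulsion formulation diluted with water to a predetermined herbicide amount was sprayed evenly onto the soil surface. Plants grew in a greenhouse at 25° C. to 30° C., and the effect was scored three weeks after application using criteria from an earlier test.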

[4] = system: chickweed; assay: Test Example 5: herbicidal effect by foliage application, plastic box (Table 20, symbol P); type: in vivo, common chickweed (Stellaria media); settings: foliage application, 320 g/ha, three weeks after application
Outline: as §2

[5] = system: redroot pigweed; assay: Test Example 4: herbicidal effect by soil treatment (Table 19, symbol N); type: in vivo, redroot pigweed (Amaranthus retroflexus); settings: amount of applied herbicide 320 g/ha
Outline: as §3

[6] = system: persian speedwell; assay: Test Example 4: herbicidal effect by soil treatment (Table 19, symbol R); type: in vivo, Persian speedwell (Veronica persica); settings: amount of applied herbicide 320 g/ha
Outline: as §3

[7] = system: southern crabgrass; assay: Test Example 4: herbicidal effect by soil treatment (Table 19, symbol F); type: in vivo, southern crabgrass (Digitaria ciliaris); settings: amount of applied herbicide 320 g/ha
Outline: as §3

[8] = system: blackgrass; assay: Test Example 5: herbicidal effect by foliage application, plastic box (Table 20, symbol J); type: in vivo, blackgrass (Alopecurus myosuroides); settings: foliage application, 320 g/ha, three weeks after application
Outline: as §2

[9] = system: lambsquarters; assay: Test Example 5: herbicidal effect by foliage application, plastic box (Table 20, symbol O); type: in vivo, lambsquarters (Chenopodium album); settings: foliage application, 320 g/ha, three weeks after application
Outline: as §2

[10] = system: redroot pigweed; assay: Test Example 5: herbicidal effect by foliage application, plastic box (Table 20, symbol N); type: in vivo, redroot pigweed (Amaranthus retroflexus); settings: foliage application, 320 g/ha, three weeks after application
Outline: as §2

[11] = system: false cleavers; assay: Test Example 4: herbicidal effect by soil treatment (Table 19, symbol Q); type: in vivo, false cleavers (Galium spurium); settings: amount of applied herbicide 320 g/ha
Outline: as §3

[12] = system: lambsquarters; assay: Test Example 4: herbicidal effect by soil treatment (Table 19, symbol O); type: in vivo, lambsquarters (Chenopodium album); settings: amount of applied herbicide 320 g/ha
Outline: as §3

[13] = system: persian speedwell; assay: Test Example 5: herbicidal effect by foliage application, plastic box (Table 20, symbol R); type: in vivo, Persian speedwell (Veronica persica); settings: foliage application, 320 g/ha, three weeks after application
Outline: as §2

[14] = system: southern crabgrass; assay: Test Example 5: herbicidal effect by foliage application, plastic box (Table 20, symbol F); type: in vivo, southern crabgrass (Digitaria ciliaris); settings: foliage application, 320 g/ha, three weeks after application
Outline: as §2

[15] = system: late watergrass; assay: Test Example 1: herbicidal activity, application before weed generation under submerged conditions (Table 16, symbol A); type: in vivo, late watergrass (Echinochloa oryzicola); settings: amount of applied herbicide 320 g/ha
Outline: as §1

[16] = system: barnyard grass; assay: Test Example 4: herbicidal effect by soil treatment (Table 19, symbol H); type: in vivo, barnyard grass (Echinochloa crus-galli); settings: amount of applied herbicide 320 g/ha
Outline: as §3

[17] = system: velvetleaf; assay: Test Example 4: herbicidal effect by soil treatment (Table 19, symbol M); type: in vivo, velvetleaf (Abutilon theophrasti); settings: amount of applied herbicide 320 g/ha
Outline: as §3

[18] = system: green foxtail; assay: Test Example 5: herbicidal effect by foliage application, plastic box (Table 20, symbol G); type: in vivo, green foxtail (Setaria viridis); settings: foliage application, 320 g/ha, three weeks after application
Outline: as §2

[19] = system: wild oat; assay: Test Example 5: herbicidal effect by foliage application, plastic box (Table 20, symbol I); type: in vivo, wild oat (Avena fatua); settings: foliage application, 320 g/ha, three weeks after application
Outline: as §2

[20] = system: barnyard grass; assay: Test Example 5: herbicidal effect by foliage application, plastic box (Table 20, symbol H); type: in vivo, barnyard grass (Echinochloa crus-galli); settings: foliage application, 320 g/ha, three weeks after application
Outline: as §2

[21] = system: Chinese sprangletop; assay: Test Example 3: herbicidal effect by foliage application, Wagner pot (Table 18, symbol D); type: in vivo, chinese sprangletop (Leptochloa chinensis); settings: 320 g/ha
Outline: (§4)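 Plants were sown in alluvial soil held under 0.1–0.5 cm standing water and grown 14 days in a greenhouse at 25–30 °C. An emulsifiable formulation, water-diluted to the set dose, was then sprayed onto the foliage, and effects were scored three weeks later using previously defined criteria.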

[22] = system: wild oat; assay: Test Example 4: herbicidal effect by soil treatment (Table 19, symbol I); type: in vivo, wild oat (Avena fatua); settings: amount of applied herbicide 320 g/ha
Outline: as §3

[23] = system: barnyard grass; assay: Test Example 3: herbicidal effect by foliage application, Wagner pot (Table 18, symbol H); type: in vivo, barnyard grass (Echinochloa crus-galli); settings: 320 g/ha
Outline: as §4

[24] = system: windgrass; assay: Test Example 5: herbicidal effect by foliage application, plastic box (Table 20, symbol L); type: in vivo, windgrass (Apera spica-venti); settings: foliage application, 320 g/ha, three weeks after application
Outline: as §2

[25] = system: green foxtail; assay: Test Example 4: herbicidal effect by soil treatment (Table 19, symbol G); type: in vivo, green foxtail (Setaria viridis); settings: amount of applied herbicide 320 g/ha
Outline: as §3

[26] = system: rice flat sedge; assay: Test Example 3: herbicidal effect by foliage application, Wagner pot (Table 18, symbol E); type: in vivo, rice flat sedge (Cyperus iria); settings: 320 g/ha
Outline: as §4

[27] = system: blackgrass; assay: Test Example 4: herbicidal effect by soil treatment (Table 19, symbol J); type: in vivo, blackgrass (Alopecurus myosuroides); settings: amount of applied herbicide 320 g/ha
Outline: as §3

[28] = system: chickweed; assay: Test Example 4: herbicidal effect by soil treatment (Table 19, symbol P); type: in vivo, common chickweed (Stellaria media); settings: amount of applied herbicide 320 g/ha
Outline: as §3

[29] = system: Italian ryegrass; assay: Test Example 5: herbicidal effect by foliage application, plastic box (Table 20, symbol K); type: in vivo, Italian ryegrass (Lolium multiflorum); settings: foliage application, 320 g/ha, three weeks after application
Outline: as §2

[30] = system: Japanese bulrush; assay: Test Example 1: herbicidal activity, application before weed generation under submerged conditions (Table 16, symbol B); type: in vivo, Japanese bulrush (Schoenoplectus juncoides); settings: amount of applied herbicide 320 g/ha
Outline: as §1

[31] = system: Italian ryegrass; assay: Test Example 4: herbicidal effect by soil treatment (Table 19, symbol K); type: in vivo, Italian ryegrass (Lolium multiflorum); settings: amount of applied herbicide 320 g/ha
Outline: as §3

## COc1ccccc1-c1sc2cc(Cl)ccc2c1-c1c(O)c(C)nn(C)c1=O [3-035]
[1]
  Herbicidal effect, C: oval-leafed pondweed: 0 (Herbicidal rate of 5% or less (almost no effect))
[2]
  M: velvetleaf, herbicidal effect grade: 4 (Herbicidal rate of 70% or more and less than 90%)
[3]
  L: windgrass, herbicidal effect grade: 0 (Herbicidal rate of 5% or less (almost no effect))
[4]
  P: chickweed, herbicidal effect grade: 5 (Herbicidal rate of 90% or more (almost completely withered))
[5]
  N: redroot pigweed, herbicidal effect grade: 4 (Herbicidal rate of 70% or more and less than 90%)
[6]
  R: persian speedwell, herbicidal effect grade: 1 (Herbicidal rate of 5% or more and less than 20%)
[7]
  F: southern crabgrass, herbicidal effect grade: 3 (Herbicidal rate of 40% or more and less than 70%)
[8]
  J: blackgrass, herbicidal effect grade: 3 (Herbicidal rate of 40% or more and less than 70%)
[9]
  O: lambsquarters, herbicidal effect grade: 4 (Herbicidal rate of 70% or more and less than 90%)
[10]
  N: redroot pigweed, herbicidal effect grade: 4 (Herbicidal rate of 70% or more and less than 90%)
[11]
  Q: false cleavers, herbicidal effect grade: 3 (Herbicidal rate of 40% or more and less than 70%)
[12]
  O: lambsquarters, herbicidal effect grade: 5 (Herbicidal rate of 90% or more (almost completely withered))
[13]
  R: persian speedwell, herbicidal effect grade: 5 (Herbicidal rate of 90% or more (almost completely withered))
[14]
  F: southern crabgrass, herbicidal effect grade: 4 (Herbicidal rate of 70% or more and less than 90%)
[15]
  Herbicidal effect, A: late watergrass: 3 (Herbicidal rate of 40% or more and less than 70%)
[16]
  H: barnyard grass, herbicidal effect grade: 5 (Herbicidal rate of 90% or more (almost completely withered))
[17]
  M: velvetleaf, herbicidal effect grade: 3 (Herbicidal rate of 40% or more and less than 70%)
[18]
  G: green foxtail, herbicidal effect grade: 5 (Herbicidal rate of 90% or more (almost completely withered))
[19]
  I: wild oat, herbicidal effect grade: 3 (Herbicidal rate of 40% or more and less than 70%)
[20]
  H: barnyard grass, herbicidal effect grade: 4 (Herbicidal rate of 70% or more and less than 90%)
[21]
  herbicidal effect on Chinese sprangletop (D): 3 (Herbicidal rate of 40% or more and less than 70%)
[22]
  I: wild oat, herbicidal effect grade: 0 (Herbicidal rate of 5% or less (almost no effect))
[23]
  herbicidal effect on barnyard grass (H): 4 (Herbicidal rate of 70% or more and less than 90%)
[24]
  L: windgrass, herbicidal effect grade: 4 (Herbicidal rate of 70% or more and less than 90%)
[25]
  G: green foxtail, herbicidal effect grade: 4 (Herbicidal rate of 70% or more and less than 90%)
[26]
  herbicidal effect on rice flat sedge (E): 5 (Herbicidal rate of 90% or more (almost completely withered))
[27]
  J: blackgrass, herbicidal effect grade: 3 (Herbicidal rate of 40% or more and less than 70%)
[28]
  P: chickweed, herbicidal effect grade: 4 (Herbicidal rate of 70% or more and less than 90%)
[29]
  K: Italian ryegrass, herbicidal effect grade: 3 (Herbicidal rate of 40% or more and less than 70%)
[30]
  Herbicidal effect, B: Japanese bulrush: 3 (Herbicidal rate of 40% or more and less than 70%)
[31]
  K: Italian ryegrass, herbicidal effect grade: 2 (Herbicidal rate of 20% or more and less than 40%)

Reference: patent publication US20230085307A1, “PYRIDAZINONE COMPOUND AND HERBICIDE” (NISSAN CHEMICAL CORPORATION, priority 2019, published 2023)
